Several values for one entry are separate records, joined by “and”; a condition that tells them apart may be missing. Identical values can stand only once. Marks after values point to notes of the source that are not given here.
Tests used:
K. pneumoniae 59 [1] = experiment: Checkerboard broth microdilution MIC of cefepime alone and with taniborbactam; type: cell-based, Klebsiella pneumoniae; details: ESBL-producing K. pneumoniae; in vitro checkerboard
From the text: (§1) Four previously well-characterized cefepime-resistant isolates, namely one ESBL-producing E. coli, one ESBL-producing K. pneumoniae and two P. aeruginosa (one VIM- and one AmpC constitutively -producing), were used.

P. aeruginosa 106 [2] = experiment: as above; type: cell-based, Pseudomonas aeruginosa; details: AmpC constitutively-producing P. aeruginosa; in vitro checkerboard
From the text: as §1

P. aeruginosa 132 [3] = experiment: as above; type: cell-based, Pseudomonas aeruginosa; details: VIM-producing P. aeruginosa; in vitro checkerboard
From the text: as §1

[4] = Protein binding, equilibrium dialysis chamber, LC-MS/MS; type: in vitro ADME
From the text: […]. […] […].
(§2) . […] Free drug concentrations were used in all calculations. […]

K. pneumoniae 59 [5] = experiment: Neutropenic murine thigh infection model; type: in vivo, Klebsiella pneumoniae
Procedure: (§3) All dosing regimens were performed in at least two animals per dosing regimen.
(§4) At t = 0 h, 2 h after infection, two mice were humanely euthanized to determine the initial number of cfu/thigh just before treatment. […] Subsequently, thighs were homogenized using the Ultra-Turrax homogenizer (IKA Labortechnik, Germany). For each thigh 10-fold dilution series were prepared and 3 × 10 µL per dilution were plated (Chromagar, bioMérieux, NL). The following day, colonies were counted and the number of cfu/thigh was calculated.
(§5) Free drug concentrations were used in all calculations.

P. aeruginosa 106 [6] = experiment: Neutropenic murine thigh infection model; type: in vivo, Pseudomonas aeruginosa
Procedure: as §3, §4, §5

P. aeruginosa 132 [7] = experiment: Neutropenic murine thigh infection model; type: in vivo, Pseudomonas aeruginosa
Procedure: as §3, §4, §5

[8] = tested on: β-lactamase–producing Enterobacterales and Pseudomonas aeruginosa; experiment: Neutropenic murine thigh infection model, all isolates together; type: in vivo
Procedure: […]. […] […]. All dosing regimens were performed in at least two animals per dosing regimen.
At t = 0 h, 2 h after infection, two mice were humanely euthanized to determine the initial number of cfu/thigh just before treatment. All other animals were euthanized at t = 24 h unless the welfare of the animals indicated earlier termination, following animal welfare regulations. Thighs were taken and moved to a pre-cooled 10 mL plastic tube (Transport Tube, Omnilabo, NL) containing 2 mL PBS (NaCl 8.00 g/L, Na2HPO4 * 2H2O 1.44 g/L, KH2PO4 0.26 g/L, pH 7.2–7.4). Subsequently, thighs were homogenized using the Ultra-Turrax homogenizer (IKA Labortechnik, Germany). For each thigh 10-fold dilution series were prepared and 3 × 10 µL per dilution were plated (Chromagar, bioMérieux, NL). The following day, colonies were counted and the number of cfu/thigh was calculated. The drug effect was then determined as the difference between the log10cfu/thigh values at t = 24 h and t = 0 h (mean value of two mice) expressed as Δlog10cfu, i.e. positive result for growth, zero for static effect and negative for reduction of inoculum (killing).
as §2

[9] = + cefepime q2h 64 mg/kg, Ct 0.015 mg/L
[10] = + cefepime q2h 64 mg/kg, Ct 0.03 mg/L
[11] = + cefepime q2h 64 mg/kg, Ct 0.06 mg/L
[12] = + cefepime q2h 64 mg/kg, Ct 0.125 mg/L
[13] = + cefepime q2h 64 mg/kg, Ct 0.25 mg/L
[14] = + cefepime q2h 64 mg/kg, Ct 0.5 mg/L
[15] = + cefepime q2h 64 mg/kg, Ct 1 mg/L
[16] = + cefepime q2h 64 mg/kg, Ct 2 mg/L
[17] = + cefepime q2h 64 mg/kg, Ct 4 mg/L
[18] = taniborbactam q2h + cefepime q2h 64 mg/kg
[19] = + cefepime q2h 8 mg/kg, Ct 0.015 mg/L
[20] = + cefepime q2h 8 mg/kg, Ct 0.03 mg/L
[21] = + cefepime q2h 8 mg/kg, Ct 0.06 mg/L
[22] = + cefepime q2h 8 mg/kg, Ct 0.125 mg/L
[23] = + cefepime q2h 8 mg/kg, Ct 0.25 mg/L
[24] = + cefepime q2h 8 mg/kg, Ct 0.5 mg/L
[25] = + cefepime q2h 8 mg/kg, Ct 1 mg/L
[26] = + cefepime q2h 8 mg/kg, Ct 2 mg/L
[27] = + cefepime q2h 8 mg/kg, Ct 4 mg/L
[28] = taniborbactam q2h + cefepime q2h 8 mg/kg
[29] = Ct = taniborbactam concentration where reversal of cefepime resistance was found in vitro

For `NCCN[C@H]1CC[C@H](CC(=O)N[C@H]2Cc3cccc(C(=O)O)c3OB2O)CC1` [taniborbactam, Taniborbactam], the “Taniborbactam concentration at which reversal of phenotypic resistance to cefepime was observed” value (shortened to “Taniborbactam concentration”) (K. pneumoniae 59 [1]) was 0.25 mg/L, the “Taniborbactam concentration” value (P. aeruginosa 106 [2]) was 2 mg/L and the “Taniborbactam concentration” value (P. aeruginosa 132 [3]) was 0.125 mg/L. The Protein binding [4] was 19.6%, the “Stasis: Taniborbactam %ƒT > Ct 0.015 mg/L” value (K. pneumoniae 59 [5]; + cefepime q2h 4 mg/kg, Ct 0.015 mg/L) was 100% and the “1 log kill: Taniborbactam %ƒT > Ct 0.015 mg/L” value (K. pneumoniae 59 [5]; + cefepime q2h 4 mg/kg, Ct 0.015 mg/L, at extrapolated dose) was 100%. The “Stasis: Taniborbactam %ƒT > Ct 0.03 mg/L” value (K. pneumoniae 59 [5]; + cefepime q2h 4 mg/kg, Ct 0.03 mg/L) was 100%, the “1 log kill: Taniborbactam %ƒT > Ct 0.03 mg/L” value (K. pneumoniae 59 [5]; + cefepime q2h 4 mg/kg, Ct 0.03 mg/L, at extrapolated dose) was 100% and the “Stasis: Taniborbactam %ƒT > Ct 0.06 mg/L” value (K. pneumoniae 59 [5]; + cefepime q2h 4 mg/kg, Ct 0.06 mg/L) was 86.2%. The “1 log kill: Taniborbactam %ƒT > Ct 0.06 mg/L” value (K. pneumoniae 59 [5]; + cefepime q2h 4 mg/kg, Ct 0.06 mg/L, at extrapolated dose) was 100%, the “Stasis: Taniborbactam %ƒT > Ct 0.125 mg/L” value (K. pneumoniae 59 [5]; + cefepime q2h 4 mg/kg, Ct 0.125 mg/L) was 69.3% and the “1 log kill: Taniborbactam %ƒT > Ct 0.125 mg/L” value (K. pneumoniae 59 [5]; + cefepime q2h 4 mg/kg, Ct 0.125 mg/L, at extrapolated dose) was 100%. The “Stasis: Taniborbactam %ƒT > Ct 0.25 mg/L” value (K. pneumoniae 59 [5]; + cefepime q2h 4 mg/kg, Ct 0.25 mg/L) was 52.4%, the “1 log kill: Taniborbactam %ƒT > Ct 0.25 mg/L” value (K. pneumoniae 59 [5]; + cefepime q2h 4 mg/kg, Ct 0.25 mg/L, at extrapolated dose) was 100% and the “Stasis: Taniborbactam %ƒT > Ct 0.5 mg/L” value (K. pneumoniae 59 [5]; + cefepime q2h 4 mg/kg, Ct 0.5 mg/L) was 35.5%. For the same compound, the “1 log kill: Taniborbactam %ƒT > Ct 0.5 mg/L” value (K. pneumoniae 59 [5]; + cefepime q2h 4 mg/kg, Ct 0.5 mg/L, at extrapolated dose) was 100%, the “Stasis: Taniborbactam %ƒT > Ct 1 mg/L” value (K. pneumoniae 59 [5]; + cefepime q2h 4 mg/kg, Ct 1 mg/L) was 18.6% and the “1 log kill: Taniborbactam %ƒT > Ct 1 mg/L” value (K. pneumoniae 59 [5]; + cefepime q2h 4 mg/kg, Ct 1 mg/L, at extrapolated dose) was 99.01%. For the same compound, the “Stasis: Taniborbactam %ƒT > Ct 2 mg/L” value (K. pneumoniae 59 [5]; + cefepime q2h 4 mg/kg, Ct 2 mg/L) was 0%, the “1 log kill: Taniborbactam %ƒT > Ct 2 mg/L” value (K. pneumoniae 59 [5]; + cefepime q2h 4 mg/kg, Ct 2 mg/L, at extrapolated dose) was 83.25% and the “Stasis: Taniborbactam %ƒT > Ct 4 mg/L” value (K. pneumoniae 59 [5]; + cefepime q2h 4 mg/kg, Ct 4 mg/L) was 0%. The “1 log kill: Taniborbactam %ƒT > Ct 4 mg/L” value (K. pneumoniae 59 [5]; + cefepime q2h 4 mg/kg, Ct 4 mg/L, at extrapolated dose) was 66.35%, the “Stasis: Taniborbactam total daily dose” value (K. pneumoniae 59 [5]; taniborbactam q2h + cefepime q2h 4 mg/kg) was 24.00 mg/kg and the “1 log kill: Taniborbactam total daily dose, mg/kg” value (“1 log kill … mg/kg” for short) (K. pneumoniae 59 [5]; taniborbactam q2h + cefepime q2h 4 mg/kg, extrapolated dose, effect not reached within tested doses) was “(680)^b mg/kg”. The “1 log kill: Taniborbactam %ƒT > Ct 0.015 mg/L” value (P. aeruginosa 106 [6]; [9]) was 100%, the “Stasis: Taniborbactam %ƒT > Ct 0.015 mg/L” value (P. aeruginosa 106 [6]; [9]) was 100% and the “1 log kill: Taniborbactam %ƒT > Ct 0.03 mg/L” value (P. aeruginosa 106 [6]; [10]) was 100%. The “Stasis: Taniborbactam %ƒT > Ct 0.03 mg/L” value (P. aeruginosa 106 [6]; [10]) was 100%, the “1 log kill: Taniborbactam %ƒT > Ct 0.06 mg/L” value (P. aeruginosa 106 [6]; [11]) was 100% and the “Stasis: Taniborbactam %ƒT > Ct 0.06 mg/L” value (P. aeruginosa 106 [6]; [11]) was 100%. The “1 log kill: Taniborbactam %ƒT > Ct 0.125 mg/L” value (P. aeruginosa 106 [6]; [12]) was 100%, the “Stasis: Taniborbactam %ƒT > Ct 0.125 mg/L” value (P. aeruginosa 106 [6]; [12]) was 100% and the “1 log kill: Taniborbactam %ƒT > Ct 0.25 mg/L” value (P. aeruginosa 106 [6]; [13]) was 100%. The “Stasis: Taniborbactam %ƒT > Ct 0.25 mg/L” value (P. aeruginosa 106 [6]; [13]) was 88.39%, the “1 log kill: Taniborbactam %ƒT > Ct 0.5 mg/L” value (P. aeruginosa 106 [6]; [14]) was 96.5% and the “Stasis: Taniborbactam %ƒT > Ct 0.5 mg/L” value (P. aeruginosa 106 [6]; [14]) was 71.5%. The “1 log kill: Taniborbactam %ƒT > Ct 1 mg/L” value (P. aeruginosa 106 [6]; [15]) was 79.6% and 79.61%, the “Stasis: Taniborbactam %ƒT > Ct 1 mg/L” value (P. aeruginosa 106 [6]; [15]) was 54.6% and 54.61% and the “1 log kill: Taniborbactam %ƒT > Ct 2 mg/L” value (P. aeruginosa 106 [6]; [16]) was 62.71%. The “Stasis: Taniborbactam %ƒT > Ct 2 mg/L” value (P. aeruginosa 106 [6]; [16]) was 37.74%, the “1 log kill: Taniborbactam %ƒT > Ct 4 mg/L” value (P. aeruginosa 106 [6]; [17]) was 45.8% and the “Stasis: Taniborbactam %ƒT > Ct 4 mg/L” value (P. aeruginosa 106 [6]; [17]) was 20.82%. For the same compound, the “1 log kill … mg/kg” value (P. aeruginosa 106 [6]; [18]) was 293 mg/kg, the “Stasis: Taniborbactam total daily dose” value (P. aeruginosa 106 [6]; [18]) was 105.00 mg/kg and the “1 log kill: Taniborbactam %ƒT > Ct 0.015 mg/L” value (P. aeruginosa 132 [7]; [19]) was 100%. The “Stasis: Taniborbactam %ƒT > Ct 0.015 mg/L” value (P. aeruginosa 132 [7]; [19]) was 100%, the “1 log kill: Taniborbactam %ƒT > Ct 0.03 mg/L” value (P. aeruginosa 132 [7]; [20]) was 100% and the “Stasis: Taniborbactam %ƒT > Ct 0.03 mg/L” value (P. aeruginosa 132 [7]; [20]) was 96.10%. The “1 log kill: Taniborbactam %ƒT > Ct 0.06 mg/L” value (P. aeruginosa 132 [7]; [21]) was 88.19%, the “Stasis: Taniborbactam %ƒT > Ct 0.06 mg/L” value (P. aeruginosa 132 [7]; [21]) was 79.2% and the “1 log kill: Taniborbactam %ƒT > Ct 0.125 mg/L” value (P. aeruginosa 132 [7]; [22]) was 71.30%. For the same compound, the “Stasis: Taniborbactam %ƒT > Ct 0.125 mg/L” value (P. aeruginosa 132 [7]; [22]) was 62.31%, the “1 log kill: Taniborbactam %ƒT > Ct 0.25 mg/L” value (P. aeruginosa 132 [7]; [23]) was 54.41% and the “Stasis: Taniborbactam %ƒT > Ct 0.25 mg/L” value (P. aeruginosa 132 [7]; [23]) was 45.1%. For the same compound, the “1 log kill: Taniborbactam %ƒT > Ct 0.5 mg/L” value (P. aeruginosa 132 [7]; [24]) was 37.51%, the “Stasis: Taniborbactam %ƒT > Ct 0.5 mg/L” value (P. aeruginosa 132 [7]; [24]) was 28.53% and the “1 log kill: Taniborbactam %ƒT > Ct 1 mg/L” value (P. aeruginosa 132 [7]; [25]) was 20.6% and 20.62%. The “Stasis: Taniborbactam %ƒT > Ct 1 mg/L” value (P. aeruginosa 132 [7]; [25]) was 11.6% and 11.63%, the “1 log kill: Taniborbactam %ƒT > Ct 2 mg/L” value (P. aeruginosa 132 [7]; [26]) was 3.72% and the “Stasis: Taniborbactam %ƒT > Ct 2 mg/L” value (P. aeruginosa 132 [7]; [26]) was 0%. For the same compound, the “1 log kill: Taniborbactam %ƒT > Ct 4 mg/L” value (P. aeruginosa 132 [7]; [27]) was 0%, the “Stasis: Taniborbactam %ƒT > Ct 4 mg/L” value (P. aeruginosa 132 [7]; [27]) was 0% and the “1 log kill … mg/kg” value (P. aeruginosa 132 [7]; [28]) was 26 mg/kg. The “Stasis: Taniborbactam total daily dose” value (P. aeruginosa 132 [7]; [28]) was 18.00 mg/kg, the “%fT > Ct of taniborbactam associated with 1 log10 kill” value [8, 29] was 60%–100% and the “%fT > Ct of taniborbactam associated with stasis” value [8, 29] was 40%–50%. For the same compound, the “Effect of taniborbactam on cefepime's static effect” value ([8]; all isolates, combined with cefepime) was “restored cefepime’s static effect against all isolates”, the “Taniborbactam TDDs at which cefepime regained its static effect” value ([8]; all isolates, with marginally ineffective doses of cefepime) was 3.2 to 105 mg/kg and the “Taniborbactam TDDs at which cefepime regained its 1 log10 kill effect” value ([8]; all strains except K. pneumoniae) was 26–293 mg/kg. For the same compound, the “q2h regimens more effective than q8h regimens” value ([8]; taniborbactam dose fractionation with cefepime q2h) was over 10 fold.

From article PMC12802961 (Journal of Antimicrobial Chemotherapy, 2025)
